Experimental data as given in patent US20170348331A1, “METHODS AND COMPOSITIONS FOR […] LEVELS” (Children's Hospital & Research Center at Oakland, priority 2013, published 2017).

Experiments:
melatonin production = details: increasing doses of vitamin D supplementation; cited from earlier work
TPH1 [1] = test: TPH1 expression in placental tissue homogenate of a pregnant person by ELISA; format: in vivo, human; details: pregnant person with elevated TPH1, about 1,000 IU per 11.3 kg per day, after 4 weeks
Description: TPH1 expression levels are determined from placental tissue homogenate obtained from a pregnant person by ELISA analysis. […] This means that the parent has increased risk of having child with autistic spectrum disorder. Vitamin D is then administered to the pregnant person at about 1,000 IU per 11.3 kg per day. After 4 weeks of the vitamin D treatment, TPH1 expression levels are assayed in placental tissue homogenate by ELISA analysis again. […] This implies the risk of having autistic child is reduced.

TPH1 [2] = test: TPH1 expression in peripheral blood cells of a pregnant mother by ELISA; format: in vivo, human; details: pregnant mother with elevated TPH1, ~1,000 IU per 11.3 kg per day, after 4 weeks
Description: TPH1 expression levels are determined from peripheral blood cells by ELISA analysis from a pregnant mother. […] This means that the mother has increased risk of having autistic child. Vitamin D is then be administered ˜1,000 IU per 11.3 kg per day. After 4 weeks of the vitamin D treatment, TPH1 expression levels are assayed in peripheral blood by ELISA analysis again. […] The vitamin D treatment will continue through pregnancy and breastfeeding. This implies the risk of having autistic child is reduced.

[3] = test system: regulatory T cells (Tregs); details: vitamin D supplementation; cited from earlier work

Vitamin D
melatonin production (melatonin production): dose-dependent decrease
TPH1 expression level in placental tissue homogenate (TPH1 [1]): decreased to normal range
TPH1 expression level in peripheral blood (TPH1 [2]): decreased to normal range
Tregs in peripheral blood [3]: significantly increase Tregs
